Measured values taken from paper PMC11311998, “AR71, Histamine H3 Receptor Ligand—In Vitro and In Vivo Evaluation (Anti-Inflammatory Activity, Metabolic Stability, Toxicity, and Analgesic Action)” (International Journal of Molecular Sciences, 2024).
Read-outs that look alike come from different tables or passages of the source.

Test system: human peripheral blood mononuclear cells (PBMCs)
Experiment: PBMC viability (resazurin reduction assay)
Type: cell-based
Settings: for IC50: Homo sapiens, PBMC, read-out: IC50 PBM Cells
Protocol: PBMCs were isolated from a leucocyte-buffy coat collected from the blood of healthy non-smoking donors from the Blood Bank in Lodz, Poland. They included lymphocytes, monocytes, and other white blood cells with a round nucleus. A portion of the leucocyte-buffy coat was diluted in 1% phosphate buffer saline (PBS). Then, it was centrifuged in a density gradient of Lymphosep (Cytogen, Zgierz, Poland) at 200× g for 20 min at room temperature. Next, the cells were collected and washed thrice in 1% PBS. The supernatant was poured off, and the pellet of the cells was resuspended in RPMI 1640 medium (Lonza, Basel, Switzerland). The study protocol was approved by the Committee for Research on Human Subjects of the University of Lodz, Poland (17/KBBN-UŁ/III/2019).
The resazurin reduction assay was performed similarly to that previously described by O’Brien et al.. Resazurin salt powder was dissolved in sterile PBS. The cells were seeded on 96-well plates in 5 × 10^4 for PBMCs per well. AR71 was added to the wells to achieve final concentrations of 0.78, 1.56, 3.125, 6.25, 12.5, 25, 50, and 100 µM. In the next step, the plates were incubated at 37 °C in 5% CO2 for 2 h, 24 h, 48 h, and 72 h. Then, 10 µL of resazurin salt was added to each well, and the plates were incubated again at 37 °C in 5% CO2 for 2 h. Next, fluorescence was measured with microplate reader BioTek Synergy HT (Agilent Technologies, Inc., Santa Clara, CA, USA) using an excitation wavelength of 530/25 nm and an emission wavelength of 590/35 nm.
The viability of PBMCs was estimated after 2, 24, 48, and 72 h of incubation with AR71. The viability of individual samples was calculated relative to the negative control (NC, untreated cells), which was taken as 100%. The positive control was PBMCs incubated with 0.1% DMSO (vehicle, Veh). The results represented the means with SEMs of six independent experiments and were expressed as a percentage of untreated control cells. The values were plotted against all used concentrations of AR71 to calculate the viability inhibition concentration at 50% (IC50) using GraphPad Prism 6.07 (GraphPad Software, Inc., San Diego, CA, USA).

COc1cc(/C=C/C(=O)c2ccc(OCCCN3CCCCC3)cc2)cc(OC)c1OC [AR71, (E)-3-(3,4,5-trimethoxyphenyl)-1-(4-(3-(piperidin-1-yl)propoxy)phenyl)prop-2-en-1-one]
decrease in the number of PBMCs (100 µM, regardless of incubation time (2-72 h)): 80–98%
cytotoxic effect on PBMCs (0.78, 1.56 and 3.125 µM, 2 h): did not cause a cytotoxic effect
decrease in the number of PBMCs (6.25–50 µM, 2 h): ≤ 20%
IC50 (2 h incubation): 71 µM
IC50 (24 h incubation): 21 µM
IC50 (48 h incubation): 7.48 µM
IC50 (72 h incubation): 4.53 µM
